Data published in patent US20230285339A1, “THERAPIES FOR TREATING AML AND USES OF RARA AGONISTS, HYPOMETHYLATING AGENTS, AND BCL-2 INHIBITORS” (Syros Pharmaceuticals, Inc., priority 2020, published 2023).

Tested on: AML samples
Test: Beat AML ex vivo venetoclax sensitivity, proliferation assay on AML patient samples (AUC and IC50)
Type: cell-based, human
Method: Venetoclax sensitivity in BeatAML: The BeatAML dataset a/so included ex vivo sensitivity analysis for a panel of 121 inhibitors, including venetoclax, in a proliferation assay on 248 of the AML samples measured by area under the curve (AUC) and IC50. Only some of the patient samples were queried for each inhibitor. Of the samples with at least 40% blasts, 90 were tested for venetoclax ex vivo sensitivity. To define the best possible association of gene expression with venetoclax AUC, we performed a logistic regression model with lasso regularization to predict venetoclax AUC from the expression of all expressed genes using the expression matrix quantile normalized with the TCGA dataset. The R package glmnet was used as described above in the section “Development of monocytic expression signature in TCGA.”
To define samples sensitive to venetoclax, we first identified an IC50 that could separate sensitive samples from insensitive samples, as follows. We consulted two references (Bogenberger et al., Oncotarget 8:107206-107222, 2017) and Ramsey et al. Cancer Discovery 8:1566-1581, 2018) that defined sensitive AML cells in the range of 20-60 nM and resistant AML cells around 1 μM, and we choose 100 nM as a threshold that splits this range. We then mapped 100 nM IC50 values from the BeatAML venetoclax ex vivo assay to AUC, which is a more robust quantitative measure of sensitivity, by selecting the AUC below which all samples have an IC50<100 nM, which led to the AUC threshold of 130. At this threshold, we found 35 AML samples sensitive to venetoclax and 55 AML samples resistant to venetoclax.
In the methods, RARA gene expression in non-APL AML was evaluated in the TCGA and Beat AML RNA-seq datasets. AUC of cell viability curves were used to evaluate ex vivo sensitivity to compounds, including venetoclax, in the Beat AML dataset. A monocytic MES was developed using the expression of monocytic and primitive RNA markers in the TCGA dataset to analyze the monocytic phenotype. The MES used a logistic regression model with lasso regularization to distinguish FAB M4/5 (monocytic) from FAB M0/1/2 (primitive) using 10-fold cross-validation with 85% sensitivity and 80% specificity. The MES was then applied to the RNA-seq datasets from Beat AML and AML blasts from ND unfit AML patients in the ongoing tamibarotene-plus-azacitidine trial (NCT02807558), in which RARA-positive patients were determined by an RT-qPCR-based biomarker clinical trial assay (CTA). The MES, RARA expression, and venetoclax resistance-associated features were compared using Spearman's rho correlation; the association of the MES with the RARA biomarker and with IWG clinical responses in tamibarotene plus Aza treated patients was evaluated.

CC1(C)CCC(CN2CCN(c3ccc(C(=O)NS(=O)(=O)c4ccc(NCC5CCOCC5)c([N+](=O)[O-])c4)c(Oc4cnc5[nH]ccc5c4)c3)CC2)=C(c2ccc(Cl)cc2)C1 [venetoclax]
AML samples resistant (All 90 samples, AUC threshold 130): 55
Percent sensitive (All patients (90 AML samples), AUC threshold 130): 39%
N sensitive (All patients (90 AML samples, at least 40% blasts), sensitive = AUC below threshold of 130 (IC50<100 nM)): 35
Percent sensitive (Monocytic AML patients (MES>0.5), N total 44): 11%
N sensitive (Primitive AML patients (MES<0.5), N total 46): 30
Percent sensitive (Primitive AML patients, N total 46): 65%
Percent sensitive (RARA-high patients, N total 21): 0%
N sensitive (RARA-low patients, N total 69): 35
Percent sensitive (RARA-low patients, N total 69): 51%
